Values after ≈ are worked out from the molar mass of the structure shown. Read-outs that look alike come from different tables or passages of the source.
Assays:
Recombinant BTK(C481S) = target: T1, Recombinant BTK(C481S) (Homo sapiens, UniProt Q06187, C481S); assay: BTK C481S HTRF kinase assay; format: biochemical; settings: 30 min pre-incubation, 120 min reaction
T1 construct: purchased SignalChem
Protocol: [The procedure below names another variant; the source lists this variant under the same test.] Recombinant BTK wild type (BTK WT) was purchased from Thermo fisher.
In brief, recombinant kinases were pre-incubated in the presence or absence of compound at room temperature for 30 minutes. The reaction was initiated by the addition of the ATP and substrate peptide which could be phosphorylated by kinases in the reaction. After 120 minutes incubation, the reaction was stopped by the addition of the detection reagent mix containing EDTA.

[1] = target: T2, p-BTK (Phospho-Btk Tyr223) in TMD-8 cells (Homo sapiens, UniProt Q06187); assay: TMD8 cell line p-BTK Elisa assay; format: cell-based; settings: for Maximal Inhibition Level: p-BTK ELISA; for IC50: pervanadate 100 μM, Tyr223 ELISA
T2 construct: endogenous in cells; host or cells: TMD-8
T2 sequence (Q06187 whole entry): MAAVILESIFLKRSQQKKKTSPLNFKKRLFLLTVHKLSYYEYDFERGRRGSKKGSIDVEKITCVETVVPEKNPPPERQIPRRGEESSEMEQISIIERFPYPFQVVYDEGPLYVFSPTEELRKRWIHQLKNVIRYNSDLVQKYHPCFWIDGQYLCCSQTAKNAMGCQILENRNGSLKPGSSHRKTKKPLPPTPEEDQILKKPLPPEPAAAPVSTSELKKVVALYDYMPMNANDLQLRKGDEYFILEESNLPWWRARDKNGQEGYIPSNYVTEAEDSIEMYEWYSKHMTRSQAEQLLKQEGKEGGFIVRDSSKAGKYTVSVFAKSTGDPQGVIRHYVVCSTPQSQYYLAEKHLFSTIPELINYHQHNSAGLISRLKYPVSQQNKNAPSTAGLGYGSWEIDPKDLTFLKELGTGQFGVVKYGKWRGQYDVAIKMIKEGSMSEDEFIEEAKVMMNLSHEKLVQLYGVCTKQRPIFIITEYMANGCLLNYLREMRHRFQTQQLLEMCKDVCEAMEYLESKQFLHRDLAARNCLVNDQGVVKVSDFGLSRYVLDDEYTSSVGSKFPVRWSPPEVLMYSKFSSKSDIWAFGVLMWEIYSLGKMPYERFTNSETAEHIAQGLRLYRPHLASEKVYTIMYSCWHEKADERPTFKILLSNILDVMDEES
Protocol: The test compounds were added to the cells and cells were incubated for 0.5 hour at 37° C., 5% CO2. Then pervanadate solution was added to the cells to make a final concentration of 100 μM, and cells were incubated for a further 1 hour at 37° C., 5% CO2. […] The plate was read on a Multiscan Spectrum reader set to 450 nm wavelengths.

[2] = In vitro rat hepatocytes clearance assay; format: in vitro ADME
Protocol: (§1) In Vitro Rat/Human Hepatocytes Clearance Assay
(§2) Rat hepatocytes in male gender and human hepatocytes in mixed gender were obtained from commercial vendors (e.g., BioreclamationIVT) and stored at −150° C. prior to use. 10 mM stock solutions of tested compounds were prepared in DMSO. Thawing medium and supplement incubation medium (serum-free) were placed in a 37° C. water bath for at least 15 minutes prior to use. Stock solutions were diluted to 100 μM by combining 198 μL acetonitrile and 2 μL of 10 mM stock solution.
(§3) Vials of cryopreserved hepatocytes were removed from storage, ensured that vials remain at cryogenic temperatures. The vials were thawed in a 37° C. water bath with gently shaking. Vials were kept in a water bath until all ice crystals had dissolved and were no longer visible. Vials were sprayed with 70% ethanol before being transferred to a biosafety cabinet. And then the contents were poured into the 50 mL thawing medium conical tube. Vials were centrifuged at 100 g for 10 minutes at room temperature. Thawing medium was aspirated and hepatocytes were resuspended with serum-free incubation medium to yield ^˜1.5×10^6 cells/mL.
(§4) Cell viability and density were counted using a Trypan Blue exclusion, and then cells were diluted with serum-free incubation medium to a working cell density of 1×10^6 viable cells/ml. A portion of the hepatocytes at 1×10^6 viable cells/mL was boiled for 10 min prior to adding to the plate as negative control to eliminate the enzymatic activity so that little or no substrate turnover should be observed. The inactivated hepatocytes were used to prepare negative samples, which were used to exclude the misleading factor that resulted from instability of chemical itself.
(§5) Aliquots of 247.5 μL hepatocytes were dispensed into each well of a 96-well non-coated plate. The plate was placed in the incubator on an orbital shaker for approximately 10 minutes. Aliquots of 2.5 μL of the 100 μM test compounds were added into respective wells of the non-coated 96-well plate to start the reaction. This assay was performed in duplicate. The plate was incubated in the incubator on an orbital shaker for the designed time points. 20 μL of contents were transferred and mixed with 6 volumes (120 μL) of cold acetonitrile with internal standard to terminate the reaction at time points of 5, 15, 30, 45, 60, 80 and 100 minutes. Samples were centrifuges for 20 minutes at 4000 g and aliquots of 100 μl of the supernatants were used for LC-MS/MS analysis for measurement of test compounds.
(§6) In vitro hepatocyte clearance was estimated based on determination of elimination half-life (T1/2) of compounds disappearance from their initial concentrations. Peak area ratios of each compound (test or control) to IS was calculated. Ln (% Control) versus Incubation Time (min) curve was plotted, and the slope of a linear fitting line was calculated. Drug elimination rate constant k (min-1), T1/2 (min), and in vitro intrinsic clearance CLint (μL/min/E6) was calculated according to the following equations: k=−slope T1/2=0.693/k CLint=k/Chep • Where Chep (cells×μL-1) is the cell concentration in the incubation system. Procedure for Log D Determination

[3] = In vitro human hepatocytes clearance assay; format: in vitro ADME
Protocol: as §1, §2, §3, §4, §5, §6

[4] = Protein binding in human plasma by equilibrium dialysis; format: in vitro ADME; settings: 18 hours at 37° C.; for fraction unbound at 18 h, 5 μM: human, plasma, pH 7.4, human plasma, read-out: hPPB (fu %); for hPPB (fu %): human plasma, 5 μM, fraction unbound
Protocol: [formula] DF means the dilution factor. Procedure for Protein Binding Measurements in Human Plasma by Using Equilibrium Dialysis
Add 597 μL of blank plasma into each vial of a new plastic plate or separate plastic tube by addition of 3 μL of the working solution of each cassette, vortex at 1,000 rpm for 5 minutes. The final percent volume of organic solvent is 0.5% and the final concentration for test compound is 5 μM. Immediately transfer 50 μL of the spiked plasma suspension to a 96-well plate to act as T=0 control sample. The samples are treated the same as the samples after incubation. Place all remaining spiked plasma in the incubator for the duration of the study.
Place inserts open end up into the wells of the base plate. Add 500 μL of phosphate buffer (pH 7.4) to the buffer chamber, which is indicated by the white ring. Add 300 μL of spiked plasma sample into the sample chamber, which is indicated by the red ring. Cover the unit with gas permeable lid and incubate for 18 hours at 37° C. at 300 rpm with 5% CO2 on an orbital shaker in the CO2 incubator. At the end of incubation, remove lid and pipette 50 μL of post-dialysis samples from both buffer and plasma chambers into separated 96-well plate for analysis, respectively.
At the same time, the remaining spiked plasma sample in the plastic plate or separate plastic tube is incubated for 18 hours at 37° C. with 5% CO2 in the CO2 incubator. At T=18 hours, transfer 50 μL of the original spiked plasma suspension to the 96-well plate for analysis.
Add 50 μL of Human plasma to the buffer samples, and an equal volume of PBS to the collected plasma samples. Vortex the plate at 1,000 rpm for 2 minutes and add 400 μL of acetonitrile containing an appropriate internal standard (IS) to precipitate protein and release compound. Vortex at 1,000 rpm for 10 minutes. Centrifuge for 30 minutes at 4,000 rpm. Transfer 250 μl of the supernatant to new 96-well plates and centrifuge again (4,000 rpm, 30 minutes). Then transfer 100 μL of the supernatant to new 96-well plates for analysis. Add 100 μL of distilled water to each sample and vortex for 5 minutes at 1,000 rpm for analysis by LC-MS/MS. All compounds are tested in singlicate at 5 μM in human plasma.
All calculations are carried out using Microsoft Excel.
Calculate the percentage of unbound, percentage of bound and recovery of test compound as follows: […]

Hu Mic Clint = format: in vitro ADME, human; settings: for microsomal CLint: human, microsomes
DMSO solubility = format: physicochemical

T1 sequence (Q06187 whole entry C481S): as the sequence (Q06187 whole entry) above, with C481S counted along it

In the case of `Nc1nccn2c(C3CCC(CO)OC3)nc(-c3ccc(Oc4ccccc4)cc3)c12` (stereo not drawn) [Compound 1, (5-(8-amino-1-(4-phenoxyphenyl)imidazo[1,5-a]pyrazin-3-yl)tetrahydro-2H-pyran-2-yl)methanol], the IC50 (Recombinant BTK(C481S)) is reported as 1.06 nM, the “Maximal Inhibition Level” value [1] is reported as 97.9% and the IC50 [1] is reported as 18.9 nM. The “Rat Hep Clint” value [2] was 12.4 μL/min/10∧6 cells, the “Human Hep Clint” value [3] was 28.9 μL/min/10∧6 cells and the fraction unbound at 18 h, 5 μM [4] was 0.098. The microsomal CLint (Hu Mic Clint) was 44.9 µL/min/mg and the solubility (DMSO solubility; kinetic from dmso stock) was 51.3 µM (≈ 21.4 µg/mL).

With `Nc1nccn2c(C3CCC(CO)OC3)nc(-c3ccc(Oc4ccccc4)cc3F)c12` (single isomer, unassigned) [Compound 3, Trans-(5-(8-amino-1-(2-fluoro-4-phenoxyphenyl)imidazo[1,5-a]pyrazin-3-yl)tetrahydro-2H-pyran-2-yl)methanol] the IC50 (Recombinant BTK(C481S)) was 6.59 nM, the “Maximal Inhibition Level” value [1] was 96.2% and the IC50 [1] was 78.4 nM. The “Rat Hep Clint” value [2] was 8.8 μL/min/10∧6 cells, the “Human Hep Clint” value [3] was 12.9 μL/min/10∧6 cells and the “hPPB (fu %)” value [4] was 11.9%. For the same molecule, the “Hu Mic Clint” value (Hu Mic Clint) was 23.7 µL/min/mg and the solubility (DMSO solubility) was 34.1 µM (≈ 14.8 µg/mL).

For `Nc1ncnn2c(C3CCC(CO)OC3)nc(-c3ccc(Oc4ccccc4)cc3F)c12` (single isomer, unassigned) [Compound 11, Trans-(5-(4-amino-5-(2-fluoro-4-phenoxyphenyl)imidazo[5,1-f][1,2,4]triazin-7-yl)tetrahydro-2H-pyran-2-yl)methanol], the IC50 (Recombinant BTK(C481S)) was 5.03 nM, the “Maximal Inhibition Level” value [1] was 99.3% and the IC50 [1] was 34.7 nM. For the same molecule, the “Rat Hep Clint” value [2] was 11.7 μL/min/10∧6 cells, the “Human Hep Clint” value [3] was 3.6 μL/min/10∧6 cells and the “hPPB (fu %)” value [4] was 8.9%. The “Hu Mic Clint” value (Hu Mic Clint) was 9.3 µL/min/mg and the solubility (DMSO solubility) was less than 1.6 µM.

With `Nc1ncnn2c(C3CCC(CO)OC3)nc(-c3ccc(Oc4ccccc4)c(F)c3F)c12` (stereo not drawn) [Compound 12, (5-(4-amino-5-(2,3-difluoro-4-phenoxyphenyl)imidazo[1,5-f][1,2,4]triazin-7-yl)tetrahydro-2H-pyran-2-yl)methanol] the IC50 (Recombinant BTK(C481S)) was 0.27 nM, the “Maximal Inhibition Level” value [1] was 97.0% and the IC50 [1] was 23.2 nM. For the same molecule, the “Rat Hep Clint” value [2] was 46.8 μL/min/10∧6 cells, the “Human Hep Clint” value [3] was 2.0 μL/min/10∧6 cells and the fraction unbound at 18 h, 5 μM [4] was 0.074. For the same molecule, the microsomal CLint (Hu Mic Clint) was less than 3 µL/min/mg and the solubility (DMSO solubility) was 45.7 µM (≈ 20.7 µg/mL).

For `Nc1ncnn2c(C3CCC(CO)OC3)nc(-c3ccc(Oc4ccccc4)cc3F)c12` (single isomer, unassigned) [Compound 9, (5-(4-amino-5-(2-fluoro-4-phenoxyphenyl)imidazo[1,5-a][1,2,4]triazin-7-yl)tetrahydro-2H-pyran-2-yl)methanol], the IC50 (Recombinant BTK(C481S)) was 6.42 nM, the “Maximal Inhibition Level” value [1] was 107.7% and the IC50 [1] was 124 nM. The “Rat Hep Clint” value [2] was 27.2 μL/min/10∧6 cells, the “Human Hep Clint” value [3] was 5.9 μL/min/10∧6 cells and the “hPPB (fu %)” value [4] was 5.8%. The “Hu Mic Clint” value (Hu Mic Clint) was 34.3 µL/min/mg and the solubility (DMSO solubility) was 20.3 µM (≈ 8.84 µg/mL).

With `Nc1ncnn2c(C3CCC(CO)OC3)nc(-c3ccc(Oc4cccc(F)c4F)cc3)c12` (stereo not drawn) [Compound 14, (5-(4-amino-5-(4-(2,3-difluorophenoxy)phenyl)imidazo[5,1-f][1,2,4]triazin-7-yl)tetrahydro-2H-pyran-2-yl)methanol] the IC50 (Recombinant BTK(C481S)) was 0.86 nM, the “Maximal Inhibition Level” value [1] was 98.0% and the IC50 [1] was 24.3 nM. For the same molecule, the “Rat Hep Clint” value [2] was 9.48 μL/min/10∧6 cells, the “Human Hep Clint” value [3] was 2.5 μL/min/10∧6 cells and the fraction unbound at 18 h, 5 μM [4] was 0.049. It also gave a microsomal CLint (Hu Mic Clint) of less than 3 µL/min/mg and a solubility (DMSO solubility; kinetic from dmso stock) of 48 µM (≈ 21.8 µg/mL).

With `Nc1ncnn2c(C3CCC(CO)OC3)nc(-c3ccc(Oc4ccccc4)cc3F)c12` (single isomer, unassigned) [Compound 8, (5-(4-amino-5-(2-fluoro-4-phenoxyphenyl)imidazo[5,1-f][1,2,4]triazin-7-yl)tetrahydro-2H-pyran-2-yl)methanol] the IC50 (Recombinant BTK(C481S)) was 2.8 nM, the “Maximal Inhibition Level” value [1] was 100.9% and the IC50 [1] was 42.1 nM. For the same molecule, the “Rat Hep Clint” value [2] was 48.5 μL/min/10∧6 cells, the “Human Hep Clint” value [3] was 6.1 μL/min/10∧6 cells and the fraction unbound at 18 h, 5 μM [4] was 0.093. The “Hu Mic Clint” value (Hu Mic Clint) was 41.3 µL/min/mg and the solubility (DMSO solubility) was 21.0 µM (≈ 9.14 µg/mL).

In the case of `Nc1nccn2c(C3CCC(CO)OC3)nc(-c3ccc(Oc4cccc(F)c4F)cc3)c12` (single isomer, unassigned) [Compound 7, (5-(8-amino-1-(4-(2,3-difluorophenoxy)phenyl)imidazo[1,5-a]pyrazin-3-yl)tetrahydro-2H-pyran-2-yl)methanol], the IC50 (Recombinant BTK(C481S)) is reported as 1.53 nM, the “Maximal Inhibition Level” value [1] is reported as 97.9% and the IC50 [1] is reported as 138 nM. For the same molecule, the “Rat Hep Clint” value [2] was 4.9 μL/min/10∧6 cells, the “Human Hep Clint” value [3] was 3.3 μL/min/10∧6 cells and the “hPPB (fu %)” value [4] was 7.3%. For the same molecule, the “Hu Mic Clint” value (Hu Mic Clint) was 13.3 µL/min/mg and the solubility (DMSO solubility) was 45.8 µM (≈ 20.7 µg/mL).

With `Nc1nccn2c(C3CCC(CO)OC3)nc(-c3ccc(Oc4ccccc4)c(F)c3F)c12` (single isomer, unassigned) [Compound 4, (5-(8-amino-1-(2,3-difluoro-4-phenoxyphenyl)imidazo[1,5-a]pyrazin-3-yl)tetrahydro-2H-pyran-2-yl)methanol] the IC50 (Recombinant BTK(C481S)) was 0.61 nM, the “Maximal Inhibition Level” value [1] was 97.4% and the IC50 [1] was 30.7 nM. The “Rat Hep Clint” value [2] was 7.2 μL/min/10∧6 cells, the “Human Hep Clint” value [3] was 5.6 μL/min/10∧6 cells and the fraction unbound at 18 h, 5 μM [4] was 0.088. It also gave a microsomal CLint (Hu Mic Clint) of 7.44 µL/min/mg and a solubility (DMSO solubility; kinetic from dmso stock) of 63.1 µM (≈ 28.6 µg/mL).

— patent US12624039B2, “BTK inhibitors” (DIZAL (JIANGSU) PHARMACEUTICAL CO., LTD., priority 2020, dated 2026)
